Data on 17 compounds can be found in PubChem BioAssay (NCI).

Molecules are shown by their SMILES. “And” between values parts separate entries of the source, which are not always exact repeats. Equal values may be shown once.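 In this assay, cells in 96-well plates receive the compound at five concentrations for 48 hours. Endpoints are linearly interpolated between the surrounding concentrations. GI50 is the concentration that inhibits growth by half. At the TGI there is no net growth.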

Common to all, as to experiment: growth of human tumour cells (NCI), 48 h
In assay [1] the test system is MOLT-4 leukemia.
Assay [2] relates to MDA-N.
Assay [3] relates to ACHN renal.
In assay [4] the test system is A498 renal.
Assay [5] relates to OVCAR-5 ovarian.
The subject of assay [6] is SK-MEL-28 melanoma.
Assay [7] relates to U251 CNS.
Assay [8] concerns MALME-3M melanoma.

Turning to `O=C(c1ccccn1)C1(N2CCCCC2)CCCCC1`, the TGI in assay [1], in assay [2], in assay [3], in assay [4], in assay [5] and in assay [6] was > 100 µM in each case. Also, the TGI in assay [7] was > 100 µM.

In the case of `O=C(NCc1ccccc1)c1n[nH][nH]c1=O`, the TGI in assay [1], in assay [2], in assay [3], in assay [8], in assay [5] and in assay [6] was > 100 µM each time. Further, in assay [7], the TGI was > 100 µM.

In the case of `Cn1c(=O)c2c(nc3n2CC(C(=O)O)N3)n(C)c1=O` (configuration not stated), the TGI in assay [1] is 0.242 µM; in assay [2] it was > 100 µM; in assay [3], > 100 µM; in assay [8], > 100 µM; in assay [4], > 100 µM; in assay [5], > 100 µM. Further, the TGI in assay [6] and in assay [7] was > 100 µM in each case.

Take `CCC(=O)NCC1CCCN2CCCCC12` (configuration not stated): the TGI in assay [1], in assay [2], in assay [3], in assay [8], in assay [4] and in assay [6] was > 100 µM each time. For the same compound, the TGI in assay [7] was > 100 µM.

`O=C(C1OC1c1ccc(Br)cc1O)C12CC3CC(CC(C3)C1)C2` (configuration not stated): the TGI was 66.7 µM in assay [1]; 32.8 µM in assay [2]; > 100 µM in assay [3]; 42.1 µM in assay [8]; > 100 µM in assay [4]; > 100 µM in assay [5]. For the same compound, the values for the TGI in assay [6] and in assay [7] were 46.8 µM and 30.8 µM, respectively.

Turning to `O=S(=O)(c1ccccc1)c1cccc2c1NCCC2`, the TGI in assay [1], in assay [2], in assay [3], in assay [8], in assay [4] and in assay [5] was > 100 µM in each case. Also, the TGI in assay [6] is > 100 µM.

Take `c1ccc2c(c1)Cn1c-2nc2ccccc21`: the TGI in assay [1], in assay [2], in assay [3], in assay [8], in assay [4] and in assay [5] was > 100 µM throughout. The TGI in assay [6] and in assay [7] was > 100 µM in each case.

Consider `Nc1nc2c(c(-c3cccc(Cl)c3)n1)COC/C2=C\c1cccc(Cl)c1`, for which the TGI in assay [1] is > 100 µM; in assay [2], > 100 µM; in assay [3], > 100 µM; in assay [8], 81.9 µM; in assay [4], > 100 µM; in assay [5], > 100 µM. Further, the TGI in assay [6] and in assay [7] was > 100 µM in each case.

Turning to `c1ccc2c3[nH]c(c2c1)=Nc1ccc(cc1)-c1nc2cc(ccc2o1)N=c1[nH]c(c2ccccc12)=Nc1ccc2nc(oc2c1)-c1ccc(cc1)N=3`, the TGI in assay [1], in assay [2], in assay [3], in assay [4], in assay [5] and in assay [6] was > 100 µM throughout. In addition, the TGI in assay [7] is > 100 µM.

In the case of `Cc1ccc(-c2cc(-c3ccco3)c(C#N)c(=S)n2C2OC(CO)C(O)C(O)C2O)cc1` (configuration not stated), the GI50 in assay [1] is 7.35 µM and 18.7 µM; in assay [3], 25.6 µM and 53.4 µM; in assay [7], 16.6 µM and 36.5 µM. The TGI in assay [1], in assay [2], in assay [3], in assay [8], in assay [4] and in assay [5] was > 100 µM each time. Besides, the TGI in assay [6] was > 100 µM; in assay [7], 35.6 µM and > 100 µM.

Consider `O=c1[nH]c(=S)[nH]c2c1C(c1ccc([N+](=O)[O-])cc1)c1c([nH]c(=S)[nH]c1=O)O2`, for which the TGI in assay [1], in assay [2], in assay [3], in assay [4], in assay [5] and in assay [6] was > 100 µM each time. The TGI in assay [7] is > 100 µM.

Take `COc1ccc(N=NC(=Nc2ccccc2)c2ccc(N(CCC#N)CCC#N)cc2)cc1`: the TGI in assay [1], in assay [2], in assay [3], in assay [4], in assay [5] and in assay [6] was > 100 µM each time. Moreover, the TGI in assay [7] is > 100 µM.

For `Cc1cccc(Cn2c3c(c4cc(O)ccc42)C(=O)c2ccccc2C3=O)c1`, the TGI in assay [1], in assay [2], in assay [3], in assay [8], in assay [4] and in assay [6] was > 100 µM each time. Moreover, the TGI in assay [7] was determined as 88.3 µM.

As to `C[C@]12CC[C@H](O)CC1=CC[C@@H]1[C@@H]2CC[C@]2(C)C(=N/N)/C(=N\O)C[C@@H]12`, the TGI is > 100 µM in assay [1]; 48.2 µM in assay [2]; > 100 µM in assay [3]; > 100 µM in assay [8]; 30.8 µM in assay [4]; > 100 µM in assay [5]. The TGI in assay [7] is 43.4 µM.

`O=C(/C=C/c1ccc2c(c1)OCO2)c1ccc(O)cc1`: the TGI in assay [2] turned out to be 22.9 µM; in assay [3], 59.4 µM; in assay [8] it was 28.6 µM; in assay [4], 38.3 µM; in assay [5], 35.1 µM; in assay [6] it was 41.1 µM. In addition, the TGI in assay [7] stood at 26.9 µM.

With `COc1nncc2[nH]c(-c3ccccc3)cc12`, the TGI was 18.1 µM in assay [1]; > 100 µM in assay [2]; > 100 µM in assay [3]; > 100 µM in assay [8]; > 100 µM in assay [4]; > 100 µM in assay [5]. Further, in assay [7], the TGI is > 100 µM.

As for `Nc1ncnc2c1[nH]c(=O)n2-c1ccccc1`, the TGI in assay [1], in assay [2], in assay [3], in assay [8], in assay [4] and in assay [5] was > 100 µM each time. For the same compound, the TGI in assay [6] was > 100 µM.
